Test [1] deals with IL-12. Description: IL-12 productivity of Mφ prepared by intraperitoneal injection of substances. In kind it is in vivo, mice. Conditions: stimulation with LPS and IFNγ; Mφ prepared by intraperitoneal injection of the substance. As for the experimental part:
(§1) The quantitative determination of IL-12 was conducted by a bioassay using human T cell strain 2D6 cells (refer to J. LEUKOCYTE BIOLOGY, vol. 61, PP 346, 1997).
(§2) The 2D6 cells cultured in RPMI 1640 medium containing 500 pg/ml of recombinant human IL-12, 50 μM 2-mercaptoethanol and 10% FCS (bovine fetal serum) were shifted into a tube and centrifugally washed three times with the same medium from which IL-12 was removed, and the cell concentration was adjusted to 1×10^5/ml. The cell suspension was added in an amount of 100 μl to each well of a 96-well flat bottom plate in which 100 μl of a sample diluted in series with RPMI 1640 medium containing 50 μM 2-mercaptoethanol and 10% FCS was previously charged in each well. The mixture was then charged into a 5% CO2 incubator at 37° C. to conduct the incubation for 48 hours. In the last 6 hours, ^3H-TdR was pulsed (a substance adjusted to 370 kBq/ml with RPMI 1640 medium containing 50 μM 2-mercaptoethanol and 10% FCS was added in an amount of 50 μl each). The cells were harvested, and a radioactivity was measured with a β counter (Matrix 96: manufactured by Packard).
Mφ prepared by intraperitoneally injecting LNT is reductive Mφ having a high GSH content, and Mφ prepared by intraperitoneally injecting LPS is oxidative Mφ having a low GSH content. It was examined whether or not there was a difference in IL-12 productivity between LNT derived Mφ and LPS derived Mφ.
Then, the same analysis was conducted using Mφ prepared by intraperitoneally injecting substances of changing the GSH content in cells.

In test [2] the test system is peritoneal exudate cells (macrophages). Description: Induction of oxidative or reductive macrophages, monochlorobimane/ACAS analysis of peritoneal exudate cells. In kind it is in vivo. The conditions noted are these: i.p. to mice: 20 μg LPS; 100 μg LNT three times every other day; monochlorobimane 10 μM, ACAS. An excerpt: The increase in amount of oxidative macrophages can easily be detected visually from the fact that almost no reaction product is observed. More specifically, a gray or blue image is obtained. An increase in amount of reductive macrophages is known from the fact that a red or yellow image can be obtained.

In test [3] the test system is IL-12. The experiment in a line: Inhibition of IL-12 production from LNT-induced Mφ by addition of DEM or BCNU. In kind it is cell-based. The method, then: as §1, §2
It was shown that IL-12 was produced only in reductive Mφ having the high GSH content in cells. […] That is, it was analyzed whether the IL-12 production was inhibited by stimulating the Mφ induced by LNT with DEM or BCNU.

Test [4] deals with IL-6. The experiment in a line: IL-6 productivity of Mφ from treated JAK3 knockout mice. Conditions: LPS stimulation, 1 mg/ml in drinking water 24 days, untreated knockout 962 pg/ml. It counts as in vivo. The method, then:
A stimulator was added to 1×10^6 Mφ, and the mixture was incubated in a CO2 incubator at 37° C. for 2 days. After centrifugation, the culture supernatant was collected.
The quantitative determination of IL-6 was conducted using mouse hybridoma MH60 cells grown dependently on IL-6 (refer to J. EUR. IMMUNOL., vol. 18, PP 951, 1988). 100 μl of the culture supernatant was added to 100 μl of the MH60 cell solution adjusted to a concentration of 1×10^5 cells/ml with a 10% FCS-containing RPMI medium, and the mixture was incubated in a CO2 incubator at 37° C. for 2 days. Then, 10 μl of MTT (made by Sigma) was adjusted to a concentration of 5 mg/ml with the same medium. The mixture was reacted at 37° C. for 5 hours. After completion of the reaction, the reaction mixture was centrifuged to remove 160 μl of the supernatant. 100 μl of hydrochloric acid-propanol was added thereto, and it was suspended therein with a pipette man to dissolve cells. Immediately after the dissolution, absorbance of 570 nm was measured by an immunometer (manufactured by Bio-Rad).
(§3) JAK3 knockout mice were divided into three groups. […]

In test [5] the test system is peritoneal Mφ of JAK3 knockout mice. The experiment in a line: GSH content in peritoneal cells of treated JAK3 knockout mice, ACAS with MCB reagent. Conditions: 1 mg/ml in drinking water, 24 days. It counts as in vivo. As for the experimental part:
300 μl of a cell suspension having cell concentration of 3×10^5 cells/ml was prepared in RPMI 1640 medium (phenol-red-free), and it was charged into a chambered coverglass (#136439 manufactured by Nunc) and incubated in a CO2 incubator of 37° C. for 2 hours. The culture solution was washed with the same medium, and 300 μl of 10 μM monochlorobimane (made by Molecular Plobe) prepared with the same medium was added thereto. The mixture was charged into a CO2 incubator of 37° C., and reacted for 30 minutes. An intensity of fluorescence was then measured by ACAS. By this way, UV laser was used in the ACAS.
JAK3 knockout mice were divided into three groups. A control group was a group in which mice were caused to freely drink usual tap water, an NAC group was a group in which mice were caused to freely drink tap water containing 1 mg/ml of NAC, and a GSH-OEt group was a group in which mice was caused to freely drink tap water containing 1 mg/ml of GSH-OEt. The bleeding was continued under SPF conditions for 24 days, and peritoneal exudate adhered cells, namely macrophages were obtained in like manner.
Peritoneal cells of knockout mice that underwent the respective treatments were prepared, and the GSH content in cells was analyzed by ACAS using an MCB reagent.

Test [6] has as its system IL-12. The experiment in a line: IL-12 productivity of Mφ from treated JAK3 knockout mice. In kind it is in vivo. The conditions noted are these: stimulation with LPS and IFNγ, 1 mg/ml in drinking water 24 days, no productivity in control group. The method, then:
as §1, §2, §3

Test [7] relates to corneal graft (B10.D2 donor, BALB/c recipient, different in minor antigen only). Description: Corneal transplantation into high-risk eyes (induced corneal new blood vessels); rejection judged by corneal opacity score. In kind it is in vivo, mouse. An excerpt:
In estimating the induction of the cornea take in the corneal allograft, mice, 8 to 10 weeks old, are used, a BALB/c (H-2d) mouse is used as a recipient, and a B10.D2 (H-2d) mouse only different in minor antigen is used as a donor.
The corneal transplantation inducing corneal new blood vessel of a high-risk eye that tends to cause rejection at a high rate in an early stage in a recipient: a corneal parenchyma is sutured with three stitches using a 11-0 nylon yarn which is allowed to stand for 14 days and the nylon yarn is removed in the corneal transplantation, is performed as follows. To a recipient mouse are intraperitoneally administered 3 mg of ketamine and 0.0075 mg of xylazine for anesthesia, and transplantation is performed. A central portion of cornea in a donor mouse is cut out to a circle having a diameter of 2 mm to form a graft. A central portion of cornea in a host mouse is cut out to a diameter of 2 mm. The donor cornea is sutured on margins with eight stitches using a 11-0 nylon yarn. After the surgical operation, an antibiotic ointment is coated thereon, and the eyelids are sutured with a 8-0 nylon yarn. The eyelid suture is removed after 72 hours from the surgical operation, and the corneal suture is removed on day 7 after the transplantation.
In the judgement of the corneal rejection, monitoring is performed twice a week using a slit-lamp microscope. The rejection is judged by scoring a corneal opacity with six grades. In connection with a time capable of judgement, the score of 3 or more on or after day 14 from the transplantation and the score of 2 or more on or after day 21 are judged to indicate the rejection. […]
In a method of one administration, a drug is dissolved or suspended in a physiological saline solution to a predetermined concentration, and 0.5 ml thereof is then intraperitoneally injected in a mouse. […] A significant difference in graft survival rate of the corneal transplantation was comparatively detected by the Breslow-Gehan-Wilcoxon test using Kaplan-Meier survival curves. […]

Test [8] deals with skin graft (B10.D2 donor, BALB/c recipient, different in minor antigen only). The experiment in a line: Skin transplantation rejection model. In kind it is in vivo, mouse. As for the experimental part: Mice, 8 to 10 weeks old, are used, a BALB/c (H-2d) mouse is used as a recipient in transplantation, and a B10.D2 (H-2d) mouse different in minor antigen only is used as a donor. To the recipient mouse, 3 mg of ketamine and 0.0075 mg of xylazine for anesthesia are intraperitoneally administered, and transplantation is performed. The skin on the body wall of the donor mouse is transplanted on the thoracic wall (8×8 mm). A gauze having a larger size than the graft covers there, and an antibiotic ointment is applied. The graft is fastened with a cast to complete the operation. The cast is removed after 7 days, and the rejection is then observed every day.
Mice, 8 to 10 weeks old, were used. A BALB/c (H-2d) mouse was used as a recipient of transplantation, and a B10.D2 (H-2d) mouse different in minor antigen only was used as a donor. […]
With respect to the drug, N,N′-diacetylcystine diethyl ester, 0.5 ml, per injection, of a 400 μg/ml solution was injected in each of the B10.D2 donor and the BALB/c recipient intraperitoneally and subcutaneously in a site for skin transplantation. […] The significant difference in graft survival rate after the skin transplantation was comparatively detected by the Breslow-Gehan-Wilcoxon test using Kaplan-Meier survival curves. […]

Turning to lipopolysaccharide [LPS], the IL-12 productivity result in test [1] is listed as “no productivity was observed”. Besides, the “type of macrophages induced” value in test [2] is “oxidative macrophages were induced”.

With letinan [LNT], the “IL-12 production from the Mφ induced by LNT” value in test [3] (without addition of DEM or BCNU) was determined as 828 pg/mL. In test [1], the IL-12 productivity is reported as 1,312 pg/ml. For the same compound, in test [2], the “type of macrophages induced” value is “reductive macrophages were induced”.

`CCCCS(=N)(=O)CCC(N)C(=O)O` [BSO, L-S, R-buthionine sulfoximine]: in test [1], the IL-12 productivity entry was “IL-12 was produced by stimulation with LPS and IFNγ only in Mφ derived from mice administered with GSH-OEt”.

For `CCOC(=O)CNC(=O)[C@H](CS)NC(=O)CC[C@H](N)C(=O)O` [GSH-OEt], in test [4], the IL-6 productivity is 82 pg/mL. In addition, the “reduced glutathione content in peritoneal Mφ vs tap water control group” value in test [5] is “remarkably increased”. Besides, the IL-12 productivity in test [1] is 3,570 pg/ml; in test [6], 610 pg/mL.

On to `CCOC(=O)/C=C\C(=O)OCC` [DEM], for which, in test [3] (addition of DEM or BCNU to LNT-induced Mφ, 828 pg/ml without addition), the “IL-12 production from the Mφ induced by LNT after addition” value was found to be 0 pg/mL. Further, in test [1], the IL-12 productivity entry is “IL-12 was produced by stimulation with LPS and IFNγ only in Mφ derived from mice administered with GSH-OEt”.

As for `CC(=O)N[C@@H](CS)C(=O)O` [NAC], the IL-6 productivity in test [4] amounted to 122 pg/mi. Besides, the “reduced glutathione content in peritoneal Mφ vs tap water control group” value in test [5] is reported as “remarkably increased”. For the same compound, in test [6], the IL-12 productivity is 420 pg/mL.

In the case of `COC(=O)[C@H](CSSC[C@H](NC(C)=O)C(=O)OC)NC(C)=O` [NAC (OMe)2, N,N′-diacetylcystine dimethyl ester], the “graft survival rate in comparison to the PBS administration control group” value in test [7] (0.5 ml of 400 μg/ml i.p. 7 days, 4 days and 1 hour before corneal transplantation, N=15 vs N=10, P<0.0001, Breslow-Gehan-Wilcoxon test) is “significantly increased”. Further, the “rejection in 3 weeks” value in test [7] (high-risk eye corneal graft, i.p. x3 before transplantation, PBS control rejected by 100% in approximately 3 weeks) was 0%. For the same compound, the “graft survival rate finally provided” value in test [7] (high-risk eye corneal graft, observed till the eighth week) was 77%.

The compound `CCOC(=O)[C@H](CSSC[C@H](NC(C)=O)C(=O)OCC)NC(C)=O` [N,N′-diacetylcystine diethyl ester] registered an MST in test [8] (0.5 ml of 400 μg/ml i.p. and s.c., x3 before (donor and recipient) and day 3-21 after skin transplantation, N=8) of 28.3 ± 1.8 days. In addition, in test [8] (skin transplantation, N=8 vs N=10, P<0.013), the “graft survival rate in comparison to the PBS administration control group” value is “significantly increased”.
